One assay has as its target human orexin-1 receptor (Homo sapiens (Human), UniProt O43613). In words: In vitro assay: intracellular calcium measurements (FLIPR), antagonistic activity. In kind it is cell-based. The following applies: CHO cells expressing human orexin-1 receptor, orexin-A agonist, geometric mean, read-out: IC50 Ox1. In a few lines:
(§1)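 Dye-loaded CHO cells expressing either human orexin receptor are exposed to test antagonist for 120 min, then stimulated with orexin-A at 3 nM.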
(A change in cytosolic calcium serves as a functional read-out for many receptors and channels.)

The next assay has as its target human orexin-2 receptor (Homo sapiens (Human), UniProt O43614). The assay is described as above. As to conditions: CHO cells expressing human orexin-2 receptor, orexin-A agonist, geometric mean, read-out: IC50 Ox2. It counts as cell-based. In a few lines: as §1

Sequence of human orexin-1 receptor (O43613 whole entry): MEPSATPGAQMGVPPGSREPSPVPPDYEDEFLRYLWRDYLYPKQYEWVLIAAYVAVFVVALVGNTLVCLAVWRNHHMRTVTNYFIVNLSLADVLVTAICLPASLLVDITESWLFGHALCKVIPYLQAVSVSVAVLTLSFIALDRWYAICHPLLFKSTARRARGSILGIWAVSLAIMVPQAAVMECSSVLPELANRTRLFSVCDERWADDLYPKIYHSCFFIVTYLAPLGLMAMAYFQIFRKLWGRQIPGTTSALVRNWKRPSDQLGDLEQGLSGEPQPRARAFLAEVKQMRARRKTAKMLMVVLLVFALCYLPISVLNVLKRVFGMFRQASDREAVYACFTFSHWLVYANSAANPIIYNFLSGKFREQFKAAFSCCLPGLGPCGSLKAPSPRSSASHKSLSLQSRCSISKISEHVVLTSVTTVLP
Sequence of human orexin-2 receptor (O43614 whole entry): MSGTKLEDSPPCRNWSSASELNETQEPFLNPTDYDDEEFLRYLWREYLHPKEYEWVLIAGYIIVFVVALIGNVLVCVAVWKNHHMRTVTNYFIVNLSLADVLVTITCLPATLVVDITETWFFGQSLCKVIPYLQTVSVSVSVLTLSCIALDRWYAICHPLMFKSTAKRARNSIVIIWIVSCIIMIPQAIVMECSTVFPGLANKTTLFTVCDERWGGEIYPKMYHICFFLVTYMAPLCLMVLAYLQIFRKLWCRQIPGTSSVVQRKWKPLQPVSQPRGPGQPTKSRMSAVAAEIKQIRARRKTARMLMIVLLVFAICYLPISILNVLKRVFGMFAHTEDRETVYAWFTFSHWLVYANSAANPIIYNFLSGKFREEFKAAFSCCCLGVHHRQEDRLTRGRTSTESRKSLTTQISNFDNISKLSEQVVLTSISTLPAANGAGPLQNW

Broadly, the IC50 is the midpoint of a concentration-inhibition curve. For the compound `Cc1cc2[nH]c([C@@H]3[C@@H](C)CCN3C(=O)c3cc(F)ccc3-c3ncccn3)nc2cc1Cl` [Ex. 4.131], the IC50 was found to be 23 nM on human orexin-1 receptor and 501 nM on human orexin-2 receptor.

For the compound `Cc1nc(C(=O)N2CCCC2c2nc3cc(F)c(Br)cc3[nH]2)c(-c2ccccc2)s1` (centres unmarked) [Ex. 1.136], the results for the IC50 on human orexin-1 receptor and at human orexin-2 receptor were 81 nM and 278 nM, respectively.

For `C[C@@]1(c2nc3cc(Cl)c(C(F)(F)F)cc3[nH]2)CCCN1C(=O)c1nc(-c2cccc(F)c2)sc1-c1ccc(F)cc1` [Ex. 5.290], the values for the IC50 on human orexin-1 receptor and at human orexin-2 receptor were 33 nM and 2140 nM, respectively.

Turning to `Cc1cc2[nH]c([C@@H]3[C@@H](C)CCN3C(=O)c3c(F)cccc3-c3ccccc3)nc2cc1Cl` [Ex. 4.112], the IC50 came to 3 nM on human orexin-1 receptor and 1060 nM on human orexin-2 receptor.

Regarding `Cc1ccc(-c2cccc(F)c2)c(C(=O)N2CCC[C@@]2(C)c2nc3c(C)c(C)ccc3[nH]2)c1` [Ex. 5.109], the figures for the IC50 on human orexin-1 receptor and at human orexin-2 receptor were 3 nM and 4 nM, respectively.

As for `C=C1C[C@@H](c2nc3cccc(C)c3[nH]2)N(C(=O)c2nc(C)sc2-c2cccc(C)c2)C1` [Ex. 6.101], the IC50 at human orexin-1 receptor is 10 nM; at human orexin-2 receptor, 0.9 nM.

On to `C=C1C[C@@H](c2nc3c(C)cccc3[nH]2)N(C(=O)c2nc(C)sc2-c2ccccc2)C1` [Ex. 6.40], for which the IC50 on human orexin-1 receptor amounted to 70 nM; at human orexin-2 receptor it was 9 nM.

In the case of `Cc1c(Cl)ccc2[nH]c([C@]3(C)CCCN3C(=O)c3nc(-c4cccc(F)c4)sc3-c3ccc(F)cc3)nc12` [Ex. 5.234], the IC50 on human orexin-1 receptor worked out at 8 nM; at human orexin-2 receptor, 131 nM.

`Cc1nc(C(=O)N2CC[C@H](C)[C@H]2c2nc3cc(C(F)(F)F)ccc3[nH]2)c(-c2ccc(Br)cc2)s1` [Ex. 4.142]: the IC50 was 6 nM on human orexin-1 receptor and 2160 nM on human orexin-2 receptor.

With `Cc1nc(C(=O)N2CCCC2c2nc3cc(OC(F)(F)F)ccc3[nH]2)c(-c2cccc(Cl)c2)s1` (centres unmarked) [Ex. 1.108], the IC50 at human orexin-1 receptor is 171 nM; on human orexin-2 receptor, 835 nM.

For `Cc1nc(C(=O)N2CCCC2c2nc3cc(Br)cc(C)c3[nH]2)c(-c2ccccc2)s1` (centres unmarked) [Ex. 1.131], the IC50 on human orexin-1 receptor was determined as 37 nM; on human orexin-2 receptor it was 48 nM.

Turning to `C[C@@]1(c2nc3cc(F)c(Br)cc3[nH]2)CCCN1C(=O)c1c(F)cccc1-n1nccn1` [Ex. 5.123], the IC50 is 146 nM at human orexin-1 receptor and 304 nM on human orexin-2 receptor.

Take `CSc1ccc2[nH]c([C@@H]3CCCN3C(=O)c3nc(C)ccc3-n3nccn3)nc2c1` [Ex. 1.180]: the values for the IC50 on human orexin-1 receptor and on human orexin-2 receptor were 1490 nM and 50 nM, respectively.

For the compound `CSc1cccc2nc([C@@H]3CCCN3C(=O)c3cncnc3-c3cccc(C)c3)[nH]c12` [Ex. 1.88], the IC50 at human orexin-1 receptor was 102 nM; at human orexin-2 receptor, 109 nM.

`Cc1ccc(-n2nccn2)c(C(=O)N2CCC[C@@]2(C)c2nc3cc(Cl)c(Cl)cc3[nH]2)c1` [Ex. 5.7]: the IC50 was 5 nM on human orexin-1 receptor and 29 nM on human orexin-2 receptor.

`Cc1nc(C(=O)N2CC[C@H](C)[C@H]2c2nc3cc(C(F)(F)F)ccc3[nH]2)c(-c2ccc(F)cc2)s1` [Ex. 4.136]: the figures for the IC50 on human orexin-1 receptor and on human orexin-2 receptor were 14 nM and 4360 nM, respectively.

Take `Cc1nc(C(=O)N2CCCC2c2nc3cc(C(F)(F)F)c(F)cc3[nH]2)c(-c2ccccc2)s1` (centres unmarked) [Ex. 1.135]: the IC50 at human orexin-1 receptor worked out at 32 nM; at human orexin-2 receptor it was 194 nM.

On to `C=C1C[C@@H](c2nc3ccc(OC)cc3[nH]2)N(C(=O)c2cc(C)c(C)cc2-n2nccn2)C1` [Ex. 6.139], for which the IC50 came to 137 nM at human orexin-1 receptor and 0.6 nM at human orexin-2 receptor.

For the compound `CSc1cccc2nc([C@@H]3CCCN3C(=O)c3nc(C)sc3-c3cccc(C(F)(F)F)c3)[nH]c12` [Ex. 1.64], the figures for the IC50 on human orexin-1 receptor and on human orexin-2 receptor were 12 nM and 18 nM, respectively.

For the compound `Cc1ccc(-c2ccccn2)c(C(=O)N2CCC[C@@]2(C)c2nc3cc(OC(F)(F)F)ccc3[nH]2)c1` [Ex. 5.239], the IC50 at human orexin-1 receptor was found to be 35 nM; at human orexin-2 receptor, 594 nM.

For the compound `C=C1C[C@@H](c2nc3ccc(OC)cc3[nH]2)N(C(=O)c2nc(C)ccc2-n2cccn2)C1` [Ex. 6.138], the IC50 at human orexin-1 receptor is more than 6970 nM; on human orexin-2 receptor, 34 nM.

As to `Cc1ccc(-n2nccn2)c(C(=O)N2CC[C@H](C)[C@H]2c2nc3cc(Cl)c(C)cc3[nH]2)c1` [Ex. 4.32], the IC50 turned out to be 7 nM on human orexin-1 receptor and 156 nM at human orexin-2 receptor.

Turning to `Cc1ccc(-n2nccn2)c(C(=O)N2CCC[C@@]2(C)c2nc3cc(C(F)(F)F)c(Cl)cc3[nH]2)n1` [Ex. 5.145], the IC50 stood at 6 nM on human orexin-1 receptor and 30 nM at human orexin-2 receptor.

Regarding `C=C1CC(c2nc3c(C)c(C)ccc3[nH]2)N(C(=O)c2cc(C)sc2-c2ccc(C)c(C)c2)C1` (centres unmarked) [Ex. 6.77], the IC50 at human orexin-1 receptor worked out at 3 nM; at human orexin-2 receptor, 9 nM.

With `Cc1nc(C(=O)N2CCC[C@@]2(C)c2nc3cc(OC(F)(F)F)ccc3[nH]2)c(-c2ccccc2C)s1` [Ex. 5.243], the IC50 at human orexin-1 receptor came out at 88 nM; on human orexin-2 receptor, 1120 nM.

Take `C=C1CC(c2nc3cc(C(C)(C)C)ccc3[nH]2)N(C(=O)c2cc(C)sc2-c2ccc(C)c(C)c2)C1` (centres unmarked) [Ex. 6.81]: the figures for the IC50 at human orexin-1 receptor and on human orexin-2 receptor were 19 nM and 23 nM, respectively.

As for `Cc1nc(C(=O)N2CCC[C@@]2(C)c2nc3cccc(C)c3[nH]2)c(-c2ccccc2)s1` [Example 5.1, (S)-(2-methyl-2-(7-methyl-1H-benzo[d]imidazol-2-yl)pyrrolidin-1-yl)(2-methyl-5-phenylthiazol-4-yl)methanone], the results for the IC50 at human orexin-1 receptor and on human orexin-2 receptor were 26 nM and 13 nM, respectively.

Turning to `Cc1cc(C)c2nc(C3CCCN3C(=O)c3nc(C)sc3-c3ccccc3)[nH]c2c1` (centres unmarked) [Ex. 1.127], the IC50 is 33 nM at human orexin-1 receptor and 22 nM on human orexin-2 receptor.

Take `C=C1C[C@@H](c2nc3cccc(C)c3[nH]2)N(C(=O)c2nc(C)sc2-c2ccc(F)c(Br)c2)C1` [Ex. 6.110]: the IC50 at human orexin-1 receptor is 15 nM; on human orexin-2 receptor, 1 nM.

Consider `Cc1nc(C(=O)N2CC[C@H](C)[C@H]2c2nc3c(Cl)cccc3[nH]2)c(-c2ccc(F)cc2)s1` [Ex. 4.118], for which the concentration for half-maximal inhibition (IC50) on human orexin-1 receptor amounted to 50 nM; at human orexin-2 receptor it was 4350 nM.

For the compound `Cc1ccc(-c2ccc(F)cc2)c(C(=O)N2CCC[C@@]2(C)c2nc3cc(C)c(C)cc3n2C)c1` [Ex. 7.15], the results for the half-maximal inhibitory concentration (IC50) on human orexin-1 receptor and at human orexin-2 receptor were 11 nM and 65 nM, respectively.

`Cc1nc(C(=O)N2CC[C@H](C)[C@H]2c2nc3c(C(F)(F)F)cccc3[nH]2)c(-c2cc(F)cc(F)c2)s1` [Ex. 4.157]: the 50% inhibitory concentration (IC50) at human orexin-1 receptor amounted to 13 nM; on human orexin-2 receptor, 1710 nM.

`COc1cccc(-c2ccc(C)cc2C(=O)N2CCC[C@@]2(C)c2nc3cc(C(F)(F)F)ccc3[nH]2)c1` [Ex. 5.188]: the IC50 is 23 nM at human orexin-1 receptor and 119 nM on human orexin-2 receptor.

With `C=C1C[C@@H](c2nc3cc(C)c(C)cc3[nH]2)N(C(=O)c2cc(C)c(C)cc2-n2nccn2)C1` [Ex. 6.197], the IC50 was 6 nM at human orexin-1 receptor and 2 nM on human orexin-2 receptor.

Take `C=C1C[C@@H](c2nc3cc(C)c(C)cc3[nH]2)N(C(=O)c2nc(C)ccc2-n2nccn2)C1` [Ex. 6.202]: the IC50 on human orexin-1 receptor worked out at 89 nM; on human orexin-2 receptor, 13 nM.

On to `C=C1C[C@@H](c2nc3ccc(Cl)c(C)c3[nH]2)N(C(=O)c2nc(C)sc2-c2ccc(OC)nc2)C1` [Ex. 6.117], for which the IC50 came to 19 nM on human orexin-1 receptor and 3 nM at human orexin-2 receptor.

For the compound `Cc1ccccc1-c1nc(C(=O)N2CCC[C@@]2(C)c2nc3cc(Cl)c(C(F)(F)F)cc3[nH]2)c(-c2ccc(F)cc2)s1` [Ex. 5.286], the IC50 turned out to be 40 nM at human orexin-1 receptor and 4590 nM at human orexin-2 receptor.

For the compound `Cc1c(Cl)ccc2c1nc([C@]1(C)CCCN1C(=O)c1ccccc1-n1nccn1)n2C` [Ex. 7.19], the IC50 at human orexin-1 receptor worked out at 5 nM; on human orexin-2 receptor, 8 nM.

As for `CO[C@H]1C[C@@H](c2nc3ccc(Cl)c(C)c3[nH]2)N(C(=O)c2cc(C)ccc2-n2nccn2)C1` [Example 3.1, ((2S,4S)-2-(6-chloro-7-methyl-1H-benzo[d]imidazol-2-yl)-4-methoxypyrrolidin-1-yl)(5-methyl-2-(2H-1,2,3-triazol-2-yl)phenyl)methanone], the IC50 at human orexin-1 receptor came out at 102 nM; at human orexin-2 receptor it was 69 nM.

On to `Cc1nc(C(=O)N2CC[C@H](C)[C@H]2c2nc3c(C(F)(F)F)cccc3[nH]2)c(-c2ccc(Br)cc2)s1` [Ex. 4.151], for which the IC50 was determined as 5 nM on human orexin-1 receptor and 185 nM at human orexin-2 receptor.

As for `COc1cc2nc([C@]3(C)CCCN3C(=O)c3c(F)cccc3-n3nccn3)[nH]c2cc1OC` [Ex. 5.66], the IC50 at human orexin-1 receptor is 872 nM; on human orexin-2 receptor, 458 nM.

For the compound `Cc1cc2[nH]c([C@@H]3[C@@H](C)CCN3C(=O)c3cc(F)ccc3-c3ccccn3)nc2cc1Cl` [Ex. 4.106], the half-maximal inhibitory concentration (IC50) turned out to be 23 nM at human orexin-1 receptor and 529 nM on human orexin-2 receptor.

Turning to `CO[C@@H]1C[C@@H](c2nc3ccc(Cl)c(C)c3[nH]2)N(C(=O)c2cc(C(F)(F)F)ccc2-n2nccn2)C1` [Ex. 3.17], the results for the IC50 at human orexin-1 receptor and at human orexin-2 receptor were 368 nM and 51 nM, respectively.

Regarding `COc1ccc(-n2nccn2)c(C(=O)N2CC[C@H](C)[C@H]2c2nc3c(C)c(Cl)ccc3[nH]2)c1` [Ex. 4.66], the IC50 came to 1 nM at human orexin-1 receptor and 23 nM on human orexin-2 receptor.

Take `COc1cccc(-c2ccc(C)cc2C(=O)N2CCC[C@@]2(C)c2nc3cc(C)c(C)cc3n2CCF)c1` [Ex. 7.51]: the IC50 on human orexin-1 receptor came to 19 nM; at human orexin-2 receptor, 27 nM.

With `C=C1CN(C(=O)c2cc(C)ccc2-n2nccn2)C(C)(c2nc3cc(OC)ccc3[nH]2)C1` (centres unmarked) [Ex. 6.156], the IC50 came out at 34 nM at human orexin-1 receptor and 12 nM on human orexin-2 receptor.

Take `CSc1cccc2nc([C@@H]3CCCN3C(=O)c3cncnc3-c3ccc(C)cc3)[nH]c12` [Ex. 1.78]: the IC50 on human orexin-1 receptor came out at 102 nM; on human orexin-2 receptor, 408 nM.

In the case of `COc1cc2nc([C@@H]3[C@@H](C)CCN3C(=O)c3cc(F)ccc3-n3nccn3)[nH]c2cc1OC` [Ex. 4.41], the IC50 was determined as 182 nM on human orexin-1 receptor and 248 nM on human orexin-2 receptor.

`Cc1ccc(-c2cccc(F)c2)c(C(=O)N2CCC[C@@]2(C)c2nc3cc(C(F)(F)F)ccc3[nH]2)c1` [Ex. 5.182]: the IC50 on human orexin-1 receptor is 10 nM; on human orexin-2 receptor, 55 nM.

These data come from US9732075B2, “Benzimidazole-proline derivatives” (IDORSIA PHARMACEUTICALS LTD, priority 2012, dated 2017).
